Assay results: patent US12202805B2, “Process for preparing (5S)-{[2-(4-carboxyphenyl)ethyl] |2-(2-{|3-chloro-4'-(trifluoromethyl)biphenyl-4-yl]methoxy}phenyl)ethyl]aminol-5,6,7,8-tetrahydroquinoline-2-carboxylic acid and its crystalline forms for use as pharmaceutically active compound” (Bayer Aktiengesellschaft, priority 2021, dated 2025)

Key:
sGC [1] = test: Efficacy under experimental conditions of oxidative stress (ODQ, L-NAME treatment); type: in vivo
[2] = Determination of thermal stability (solid, 7 days at 90° C., HPLC); type: physicochemical; settings: HPLC peak areas
Method: Determination of thermal stability of comparative example 11:
0.3 mg of the comparative example 11 were solved in 0.1 ml dimethylsulfoxide and 0.4 ml acetonitrile. Then 1.0 ml water was added. For complete dissolution the HPLC vial was shaken and sonicated. This solution was immediately analyzed by HPLC (reference at t0). 0.3 mg of the test compound was weighed into another HPLC vial. The vial was capped and stored for 7 days in a heating block at 90° C.
After this time the vial was decapped and 0.1 ml dimethylsulfoxide and 0.4 ml acetonitrile were added to the stressed compound. Then 1.0 ml water was added. For complete dissolution the HPLC vial was shaken and sonicated. The sample was analyzed by HPLC (sample after 1 week). The peak areas in percentage are used for quantification.

[3] = Protein binding via Transil assay, rat plasma; type: in vitro ADME
Method: (§1) Protein Binding of Comparative Example 11 and Comparative Example 1 was Analyzed Via Transil Assay, Described Below.
(§2) The distribution of a test substance between Transil® (phosphatidylcholine lipid bilayers immobilized on silica beads) and plasma is a characteristic feature of any pharmaceutical compound and is dependent on its extent of binding to plasma proteins. By comparing the distribution between Transil® and buffer with the distribution between Transil® and plasma of any species of interest, the unbound fraction in the plasma of the respective animal species can be calculated in vitro. The respective plasma and buffer concentrations were determined via a radioactivity analysis. A detailed description of the method and its validation was published by Schuhmacher et al. (2).

[4] = Protein binding via Transil assay, human plasma; type: in vitro ADME
Method: as §1, §2

[5] = test system: thromboxane and hypoxia challenged rats, pigs, and dogs; test: Disease relevant animal models (thromboxane and hypoxia challenged), inhaled application, PAP; type: in vivo
[6] = Filter experiments for deposited lung dose in the PAH minipig model and prediction of human dose; type: in vivo
Method: The anesthetized thromboxane A2 challenged PAH-minipig model (see experimental part E-1) is considered to be the most relevant and sensitive model for the prediction of the human minimal effective and effective doses (MED, ED). To determine effective LDs, experiments were repeated with the difference that absorbing filters were attached at the end of the tubes to determine the deposited lung dose. […] Assuming a minimal effective ND of 3 μg/kg (5% reduction in PAP) the minimal effective deposited LD is considered as 0.15 μg/kg.
The nominal doses of 3, 10, 30 and 100 μg/kg of the minipig model were multiplied by the filter deposition factor of 5% resulting in 0.15, 0.5, 1.5 and 5 μg/kg lung deposited doses in the minipig. These values were multiplied by 60 kg to achieve the lung dose in humans. Thus, the FPD reflecting the PAP reduction for a 60 kg human are calculated to be 9, 30, 90 and 300 μg.
Thus, via a direct up-scaling from minipig, the predictive MED (5% PAP reduction) for a human based on a 60 kg body weight is calculated to be 9 μg LDD, not considering protein binding within the respiratory tract. As a surrogate for unbound concentrations, which are the likely active concentrations in the lung, we considered respective differences in fractions unbound in plasma of minipig and human. […]

healthy male subjects = test: E-2.1 bodyplethysmography: total specific airway resistance (sRaw) in healthy male subjects; type: in vivo, human
Method: Healthy White male subjects, aged 18 to 45 years and with a body mass index (BMI) above/equal 18.5 and below/equal 29.9 kg/m2 were treated in a clinical pharmacological phase I study on seven days with inhaled once daily doses of 480 μg or 1000 μg or 2000 μg (2 capsules of 1000 μg) (nominal dose) of dry powder formulations comprising example 2 or Placebo. The subjects inhaled the drug powder from capsules (see under C-1, e.g. tables 22 and 23) inserted into a handheld inhalation device by one deep inhalative breath. The dry powder formulation of the drug is dispersed into the airstream and fine particles are transported into the deep parts of the lung where it is intended to cause a vasodilation of the blood vessels in PH patients for a substantial reduction of increased blood pressure in the central pulmonary blood vessels in PAH patients or other subtypes of PH. This effect cannot be shown in subjects with healthy lungs. In addition inhaled drug causes a dilation of the bronchial airways and thus also improves disease states of lung diseases in PH patients with pathological bronchoconstriction. This effect was measured via bodyplethysmography as reduction of Specific Airway Resistance in healthy subjects. […]

sGC [7] = test: E-2.2 inhalative administration in healthy male subjects for 14 days: cGMP; type: in vivo, human; settings: 1000 μg once daily inhaled
Method: E-2.2 Inhalative Administration of sGC Activators in Healthy Male Subjects for 14 Days to Evaluate Steady State Pharmacokinetics
Healthy white male subjects, aged 18 to 45 years and with a body mass index (BMI) above/equal 18.5 and below/equal 29.9 kg/m2 were treated in a clinical pharmacological phase I study for 14 days with inhaled once daily doses of 1000 μg (nominal dose) of Placebo or of dry powder formulation containing example 4. The subjects inhaled the drug powder from capsules (see under C, e.g. tables 17 and 20) inserted into a handheld inhalation device by one deep inhalative breath into the deep parts of the lung. The intended substantial reduction of increased blood pressure in the central pulmonary blood vessels cannot be evaluated in subjects without pathophysiological impairment of lung function. As surrogate for drug concentration in the lung, plasma concentrations over time have been analysed. […] Drug activity/target engagement in healthy men was controlled in the healthy subjects by analysing blood samples for cGMP.

Compound: O=C(O)c1ccc(CCN(CCc2ccccc2OCc2ccc(-c3ccc(C(F)(F)F)cc3)cc2Cl)[C@H]2CCCc3nc(C(=O)O)ccc32)cc1 [comparative example 11, (5S)-5-{[2-(4-carboxyphenyl)ethyl][2-(2-{[3-chloro-4′-(trifluoromethyl)[biphenyl]-4-yl]methoxy}phenyl)ethyl]amino}-5,6,7,8-tetrahydroquinoline-2-carboxylic acid]
- efficacy under oxidative stress (sGC [1]): enhanced
- thermal stability [2]: stable
- fraction unbound, times lower than comparative example 1 [3]: 1.6 times
- free fraction, times lower than comparative example 1 [4]: 2 times
- effect on elevated PAP [5]: selectively decreased elevated PAP
- minimal effective lung deposited dose for a human patient of 60 kg body weight ([6]; with or without effect of different protein binding): 9 to 41 µg

Compound: O=C(O)c1ccc(CCN(CCc2ccccc2OCc2ccc(-c3ccc(C(F)(F)F)cc3)cc2Cl)[C@H]2CCCc3nc(C(=O)O)ccc32)cc1 [example 2, (5S)—{[2-(4-Carboxyphenyl)ethyl][2-(2-{[3-chloro-4′-(trifluoromethyl)biphenyl-4-yl]methoxy}phenyl)-ethyl]amino}-5,6,7,8-tetrahydroquinoline-2-carboxylic acid as Monohydrate II]
- fraction unbound ([4]; read-out: plasma fu (fraction unbound)): 0.000764
- total specific airway resistance (healthy male subjects; 480 μg, 0 D 06 H 00 M): 0.800 ± 0.187 kPa/sec
- total specific airway resistance (healthy male subjects; 2000 μg, 7 D 06 H 00 M): 0.730 ± 0.151 kPa/sec
- ratio of fraction unbound minipig/human ([6]; plasma): 4.55

Compound: O=C(O)c1ccc(CCN(CCc2ccccc2OCc2ccc(-c3ccc(C(F)(F)F)cc3)cc2Cl)[C@H]2CCCc3nc(C(=O)O)ccc32)cc1 [example 4, (5S)—{[2-(4-Carboxyphenyl)ethyl][2-(2-{[3-chloro-4′-(trifluoromethyl)biphenyl-4-yl]methoxy}phenyl)-ethyl]amino}-5,6,7,8-tetrahydroquinoline-2-carboxylic acid as Monohydrate I]
- steady state of cGMP concentration reached after days of treatment (sGC [7]): ≤ 11 days
